Assay results reported in patent US20230390322A1, “HIGH CONCENTRATION METHYLCOBALAMIN OR COMBINATION OF METHYL- AND HYDROXY-COBALAMIN FOR THE TREATMENT OF COBALAMIN C DEFICIENCY DISORDERS” (THE U.S.A., as represented by the Secretary, Department of …, priority 2020, published 2023).
Entries after “also recorded” stand apart in the source; their conditions may differ.

Experiments:
[1] = tested on: Mmachc^del3 mouse line; assay: Genotype distribution at birth (P0-2), Mmachc^del3 litters; assay type: in vivo; conditions: mice at birth; prenatal treatment
Experimental: (§1) Genotyping and breeding scheme: Tail biopsies were performed routinely at 10-15 days of life or in rare cases in the first day of life and DNA was extracted using the Qiagen DNEASY® Spin Kit or the MYTAQ® Extract-PCR Kit. Mmachc genotype was determined by a fluorescent PCR method described previously^22 or by Droplet Digital PCR (ddPCR) Mutation Detection Assay (Bio-Rad). ddPCR genotyping was performed by mixing 2 ul of 1:10 diluted DNA, 1.1 ul probe-primer mix, and 7.9 ul water. The primer-probe mix contained the wild-type/mutant primer and fluorescent FAM and HEX probes targeting the mutant and wild-type alleles, respectively. Sample droplets were generated by the QX200 Droplet Digital PCR system, PCR amplified in a thermocycler, and DNA quantified by droplet fluorescence. Mmachc homozygous mutant mice and their heterozygote or wild type control littermates were generated from heterozygous parental crosses unless otherwise noted. In order to eliminate the Pdeb(rdl) mutation present in the FVB/N genetic background which causes retinal degeneration, Mmachc carrier mice were crossed to C57BL/6J mice. Subsequent generations of Mmachc carriers were genotyped for the Pdeb(rdl) mutation using a published PCR method (Gimenez and Montouliu Lab Anim 35, 153-6 (2001)), and mice homozygous for the functional Pdeb(rdl) allele were selected for further breeding. Mice were fed regular or high fat chow and weaned at P21-28.
(§2) Survival and phenotype in Mmachc mice: Mendelian ratios at birth, survival, and relative weight: To determine survival, litters were assessed daily after birth and dead pups were noted, removed, and genotyped when tissue was available. Age at time of death was recorded. Weights were measured monthly and the weight of mutants relative to average weight of control littermates was calculated.
(§3) Cobalamin Treatment: OHCbl and MeCbl were obtained from College Pharmacy (Colorado Spring, CO) or prepared at 25 mg/ml concentration and subsequently diluted with 0.9% saline solution to a working solution of 5 mg/ml. OHCbl or MeCbl was delivered by intraperitoneal injections for pups ages P0-P14 and subcutaneous injections for mice post weaning. For in utero treatment studies, pregnant dams were treated with 1 mg/week (100 mg/kg) via subcutaneous injections throughout pregnancy and weaning. For chronic therapy 50 μg/kg dosing was used.
(§4) Statistics: Graphpad Prism Software was used for statistical analysis. All data are presented as mean±SD and significance is indicated as follows: p<0.05(*), p<0.01(**), p<0.001 (***), and p<0.0001(****). Kaplan-Meier survival curve significance was determined using the Log-Rank Mantel-Cox test, genotype distribution significance was assessed using the chi-square test, and all other statistics were calculated using the unpaired t-test.

[2] = tested on: Mmachc^de13/de13 mice; assay: Plasma metabolite measurements (GC-MS), Mmachc^de13/de13; assay type: in vivo, mouse; conditions: for plasma cystathionine: P0-P30; for plasma methylmalonic acid: P0-P30 (two weeks)
Experimental: Metabolite measurements: Blood samples were collected in heparinized capillary tubes and centrifuged at 2000 rpm for 10 min at 4C. Plasma was diluted 1:40 in water for methylmalonic acid and methylcitrate measurements and undiluted plasma was used for homocysteine and cystathionine measurements. Plasma concentrations were determined by gas chromatography-mass spectrometry (GC-MS).

[3] = tested on: Mmachc^de13/de13 mice; assay: Postnatal weight relative to control littermates, Mmachc^de13/de13; assay type: in vivo, mouse
Experimental: as §2

[4] = tested on: Mmachc^de12/de12 mice; assay: Pigmentation / clinical appearance, Mmachc^de12/de12; assay type: in vivo, mouse; conditions: prenatal treatment
[5] = tested on: Mmachc^de12/de12 embryos; assay: E18.5 embryo weight and pathology, Mmachc^de12/de12; assay type: in vivo, mouse; conditions: prenatal treatment
Experimental: (§5) AAV Vector Design, Production, and Delivery: Two adeno associated viral vectors were designed: AAVrh10-Mmachc, containing the murine Mmachc coding sequence packaged into a rh10 serotype capsid, and AAV9-coMMACHC, containing a codon optimized human MMACHC coding sequence packaged into an AAV9 serotype capsid. AAVs were produced as described previously. AAV viral vectors were delivered via intrahepatic injection at a dose of 1×10^11 GC per pup in the neonatal period (P0-2). ddPCR was conducted using a CMV/CBA probe spanning the promoter/enhancer, reference albumin Dissection of Pregnant Dams: Pregnant dams were either untreated, treated with OHCbl, MeCbl or the combination (1 mg per week) during pregnancy as described and sacrificed at E18.5. Embryos were photographed, tails were collected for genotyping, and the remaining tissue was collected and flash frozen. Embryo weights were measured and the weight of mutants relative to average weight of control littermates was calculated. Crown to rump length of each embryo was also determined using ImageJ software.

[6] = tested on: Mmachc^de12/de12 mice; assay: Survival of treated Mmachc^de12/de12 mutant mice; assay type: in vivo, mouse; conditions: prenatal treatment; for median survival: Mmachc^de12/de12 mutants, OHCbl 1 mg, MeCbl 1 mg or 0.5 mg each weekly
Experimental: as §2, §3, §4

[7] = tested on: Mmachc^de13/de13 mice; assay: Pigmentation / clinical appearance, Mmachc^de13/de13; assay type: in vivo, mouse
[8] = tested on: Mmachc^de13/de13 mice; assay: Survival of treated Mmachc^de13/de13 mutant mice; assay type: in vivo, mouse; conditions: for median survival: Mmachc^de13/de13 mutants, pregnant dams treated weekly (1 mg) throughout gestation and weaning (prenatal treatment); for mutants alive at 100 days: prenatal treatment
Experimental: as §2, §3, §5, §4

[9] = tested on: Mmachc^del2 mouse line; assay: Genotype distribution at birth (P0-2), Mmachc^del2 litters; assay type: in vivo; conditions: mice at birth; prenatal treatment
Experimental: as §1, §2, §3, §4

[10] = tested on: Mmachc^de12/de12 mice; assay: Postnatal weight, Mmachc^de12/de12; assay type: in vivo, mouse; conditions: prenatal treatment
Experimental: as §2

[11] = tested on: Mmachc^de13/de13 embryos; assay: E18.5 embryo growth parameters, Mmachc^de13/de13; assay type: in vivo, mouse
Experimental: as §5

[12] = tested on: Mmachc^de13/de13 mice; assay: Retinal histology and electroretinography, Mmachc^de13/de13; assay type: in vivo, mouse
Source text: The severe neonatal lethality of this model in combination with the fact that the mouse retina develops until ˜P21 made it challenging to study retinal pathology in untreated mice.

[13] = tested on: Mmachc^del3 mouse line; assay: Genotype distribution at E18.5, Mmachc^del3 litters; assay type: in vivo; conditions: mice at E18.5; prenatal treatment
Experimental: as §5, §4

[14] = tested on: cblC patients; assay: Natural history cohort of cblC patients (NCT00078078); assay type: in vivo, human
Experimental: Extensive data was collected on a large natural history cohort of 61 patients studied every 2-3 years over 15 yrs to evaluate the impact of different approaches to clinical management/cobalamin therapy on disease outcomes (ClinicalTrial.gov ID: NCT00078078). […] Six patients (ages 2.2-3.8 years), who received higher doses of hydroxocobalamin (5-20 mg/day or 0.3-1.4 mg/kg/d) starting between 6 mo-1 yr, presented with variable macular degeneration and improved average FSIQ and ABC scores in the normal range (FSIQ 91.6±5.3; ABC 88.2±10.7), compared to our historic scores in young children <10 y of age on <0.3 mg/kg/day (FSIQ 70.69±19.11, ABC 79.83±17.42).

[15] = 7-13 months, both prenatal OHCbl and prenatal OHCbl+weekly groups
[16] = 7-13 months, prenatal+postnatal OHCbl
[17] = six patients ages 2.2-3.8 years, 5-20 mg/day or 0.3-1.4 mg/kg/d starting between 6 mo-1 yr
[18] = young children <10 y of age on <0.3 mg/kg/day

## C/C1=C2/[N-][C@H]([C@H](CC(N)=O)[C@@]2(C)CCC(=O)NC[C@H](C)OP(=O)([O-])O[C@H]2[C@@H](O)[C@@H](n3cnc4cc(C)c(C)cc43)O[C@@H]2CO)[C@]2(C)N=C(/C(C)=C3N=C(/C=C4N=C1[C@@H](CCC(N)=O)C\4(C)C)[C@@H](CCC(N)=O)[C@]\3(C)CC(N)=O)[C@@H](CCC(N)=O)[C@]2(C)CC(N)=O.[CH3-].[Co+3] [MeCbl, methylcobalamin]
[1]
  genotype distribution +/+ (%): 31%
  genotype distribution +/+ n: 38
  genotype distribution +/− (%): 63%
  genotype distribution +/− n: 76
  genotype distribution −/− (%): 6%
  genotype distribution −/− n: 7
[2]; prenatal treatment
  plasma cystathionine: reduced cystathionine to control levels; also recorded: decreased to control levels
  homocysteine levels: did not improve
[3]; prenatal treatment
  size relative to littermates at 3 months: 48%
[4]
  pigmentation of the ears: improvement in pigmentation of the ears
[5]; weekly subcutaneous injection of dams, untreated 76.4%
  weight of E18.5 embryos normalized to control values: 89.4 % of controls
[5]; H&E
  pathology at E18.5: ameliorated the pathology in the lungs, liver and brown fat
[6]
  median survival: 78 days
  mutants survived beyond 30 days: 100%
[7]; prenatal treatment
  pigmentation of fur, ears and tails: minimal pigmentation differences
[8]
  median survival: 144 days
  mutants alive at 100 days: 100%
[9]
  genotype distribution +/+ (%): 18%
  genotype distribution +/+ n: 14
  genotype distribution +/− (%): 53%
  genotype distribution +/− n: 41
  genotype distribution −/− (%): 29%
  genotype distribution −/− n: 22
[10]
  growth at 1 month: appeared growth impaired but this was not significant at 1 month

## C/C1=C2/[N-][C@H]([C@H](CC(N)=O)[C@@]2(C)CCC(=O)NC[C@@H](C)OP(=O)([O-])O[C@H]2[C@@H](O)[C@@H](n3cnc4cc(C)c(C)cc43)O[C@@H]2CO)[C@]2(C)N=C(/C(C)=C3N=C(/C=C4N=C1[C@@H](CCC(N)=O)C\4(C)C)[C@@H](CCC(N)=O)[C@]\3(C)CC(N)=O)[C@@H](CCC(N)=O)[C@]2(C)CC(N)=O.[Co+3].[OH-] [OHCbl, hydroxocobalamin]
[1]
  genotype distribution +/+ (%): 30%
  genotype distribution +/+ n: 105
  genotype distribution +/− (%): 54%
  genotype distribution +/− n: 192
  genotype distribution −/− (%): 16%
  genotype distribution −/− n: 57
[2]; [15]
  homocysteine: remained elevated vs controls but was lower
  methylmalonic acid: remained elevated vs controls and untreated mutants
[2]; [16]
  methylmalonic acid levels in the blood [MMA]: > 1500 µM
  total homocysteine levels (tHCYS): 31 µM
[2]; prenatal treatment only
  plasma methylmalonic acid: no decrease
[2]; weekly (chronic) OHCbl
  plasma methylmalonic acid: decreased
[2]; prenatal treatment
  plasma cystathionine: elevated compared to untreated mutants; also recorded: increased
  homocysteine levels: did not improve
[2]; prenatal and weekly treatment
  homocysteine levels: did not improve
[3]; prenatal OHCbl
  relative weight of mutant mice at two weeks: improved the weight vs untreated
[3]; prenatal OHCbl+weekly
  relative weight of mutant mice at two weeks: improved the weight vs untreated
[11]; de13/de13, prenatal treatment, n=11
  embryo weight normalized to control littermates: 0.8204±0.03641
[11]; prenatal treatment
  anterioposterior abdominal dimension (APD): did not improved
  crown rump length (IUGR): did not rescue the IUGR
[12]; 6-9 months of age
  retinal histology: within normal limits
[12]; prenatal OHCbl/AAV9 at 9 months, OHCbl at 6 months
  electroretinography (ERG): diminished scotopic B waves
[13]
  genotype distribution +/+ (%): (23) %
  genotype distribution +/+ n: 14
  genotype distribution +/− (%): (46) %
  genotype distribution +/− n: 28
  genotype distribution −/− (%): (31) %
  genotype distribution −/− n: 19
[6]
  median survival: 25 days
[7]; long term (prenatal+weekly) treatment
  pigmentation of ears and tail: decreased hypopigmentation
[8]
  median survival: 109 days
  mutants alive at 100 days: 50%
[8]; prenatal+weekly OHCbl
  longest surviving: > 1 year
[9]
  genotype distribution +/+ (%): 29%
  genotype distribution +/+ n: 76
  genotype distribution +/− (%): 66%
  genotype distribution +/− n: 171
  genotype distribution −/− (%): 5%
  genotype distribution −/− n: 13
[14]; adults and children on 25 mg/day monitored 2-8 years
  adverse events: no significant adverse events
[14]; single patient, 5 mg
  ABC score: 79
  eye exam: normal
[14]; [17]
  average ABC score: 88.2±10.7
  average FSIQ score: 91.6±5.3
[14]; [18]
  ABC score (historic): 79.83±17.42
  FSIQ score (historic): 70.69±19.11
